Measured values: patent publication US10632195B2, “Pharmaceutical device for electric-field assisted administration of Tapentadol and method of administering Tapentadol with same” (Gruenenthal GmbH, priority 2012, dated 2020)
Where “and” joins values, the source holds several entries; their conditions need not be identical. Identical values can stand only once. Counter-ions that a name gives are not always drawn.

Assay: iontophoretic transdermal delivery of Tapentadol hydrochloride, 24 hours of iontophoresis (example 1b), side-bi-side diffusion cells, constant current 0.25 mA (0.4 mA/cm2), donor 100 mM in water
Type: in vitro ADME, pig
Conditions: for drug flux across the skin, Mean ± SD / drug flux across the skin, as tapentadol base, Mean ± SD / cumulative, iontophoretic delivery across the skin, Mean ± SD / cumulative, iontophoretic delivery across the skin, as tapentadol base, Mean ± SD: n=6; for drug flux across the skin, Mean ± SD / drug flux across the skin, as tapentadol base, Mean ± SD / cumulative, iontophoretic delivery across the skin, Mean ± SD / cumulative, iontophoretic delivery across the skin, as tapentadol base, Mean ± SD / drug flux across the skin / cumulative, iontophoretic delivery across the skin: patch area 0.64 cm^2; for drug flux across the skin / cumulative, iontophoretic delivery across the skin: single cells 1-6, hydrochloride; for cumulative, iontophoretic delivery across the skin: listed as Tapentadol HCl
Description: Determination of the rate of iontophoretic transdermal delivery of Tapentadol hydrochloride for a period of 24 hours of iontophoresis
Tapentadol hydrochloride (batch no. A0012) was employed. The components of the phosphate buffered saline (PBS) and the mobile phase used were from Sigma, UK. The pig skin was obtained from a local farm, washed with water, excess hair was carefully trimmed with scissors, and the skin was dermatomed using a Zimmer dermatome set at a nominal thickness of 750 μm. The skin was then stored at −20° C.
The drug was delivered from the anode, using side-bi-side (horizontal) glass diffusion cells (n=6) supplied by Permegear, USA. The porcine skin membrane was excised from the dorsal surface.
Electrodes were prepared in-house and were made of silver/silver chloride. To pass current for 24 hours in this set-up, it was necessary for the donor compartment to contain 76 mM chloride ions.
The anode was placed in the donor chamber; the donor solution was 3 ml of Tapentadol hydrochloride (100 mM, i.e. 25.78 mg/ml of Tapentadol hydrochloride, 22.13 mg/ml of base) in water. The cathode was placed in the receptor chamber, which contained 3 ml of phosphate-buffered saline, pH 7.4. Both chambers were stirred by magnets.
Current was applied for a total of 8 or 24 hours, respectively.
The receptor solution was sampled and assayed at 0.5, 1, 2, 3, 4, 5, 6, 7, 8 (example 1a) and optionally 24 hours (example 1b) post-initiation of the current. During the 8 hour experiment (example 1a), at 0.5, 1, 2, and 3 hours, 1 ml of receptor solution was removed and replaced with fresh PBS. As it was clear that the amount of Tapentadol in the receptor solution was sufficient for quantitation by HPLC, at the subsequent sampling times of 4, 5, 6, 7 and 8 hours, the entire receptor solution (3 ml) was removed and replaced with fresh PBS, to ensure sink conditions in the receptor. During the 24 hour experiment (example 1b), the entire receptor solution (3 ml) was removed and replaced with fresh PBS at every sampling point.
The concentrations of Tapentadol hydrochloride in the receptor chamber samples were determined by HPLC. A mobile phase consisting of 300:700:1 methanol:water:phosphoric acid was pumped (1 ml/min) through a Acclaim RP-18 (4×150 mm) reverse-phase column (Dionex, UK) at 35° C. Tapentadol concentrations were quantified via their UV absorbance at 215 nm using a calibration curve diluted in PBS at pH 7.4. Injection volume was 20 μl and the retention time for Tapentadol hydrochloride was 12 minutes and the total run time was 16 minutes.
A Tapentadol-free “blank” diffusion cell (donor was saline only) was also prepared and the receptor solution was analysed after 8 hours to confirm no peaks from any component of the skin co-eluted with the Tapentadol hydrochloride.
Voltages were as expected for 6 cells in series (range was 6 to 28 volts). The pH of the donor solution was measured after termination of 24 hours of iontophoresis, and ranged from 6.47 to 6.99. The pH of drug in the donor prior to commencing the experiment was 5.07 (5.34 for the 8 hour iontophoresis).

[1] = 24 hours iontophoresis, as tapentadol hydrochloride

CC[C@@H](c1cccc(O)c1)[C@@H](C)CN(C)C [Tapentadol hydrochloride]
drug flux across the skin, Mean ± SD (0.5 h, iontophoresis): 3 ± 2 µg/h
drug flux across the skin, as tapentadol base, Mean ± SD (0.5 h, iontophoresis): 3 ± 2 µg/h
cumulative, iontophoretic delivery across the skin, Mean ± SD (0.5 h): 2 ± 1 µg
cumulative, iontophoretic delivery across the skin, as tapentadol base, Mean ± SD (0.5 h): 1 ± 1 µg
drug flux across the skin, Mean ± SD (1 h, iontophoresis): 48 ± 22 µg/h
drug flux across the skin, as tapentadol base, Mean ± SD (1 h, iontophoresis): 41 ± 19 µg/h
cumulative, iontophoretic delivery across the skin, Mean ± SD (1 h): 26 ± 12 µg
cumulative, iontophoretic delivery across the skin, as tapentadol base, Mean ± SD (1 h): 22 ± 10 µg
drug flux across the skin, Mean ± SD (1.5 h, iontophoresis): 96 ± 22 µg/h
drug flux across the skin, as tapentadol base, Mean ± SD (1.5 h, iontophoresis): 82 ± 19 µg/h
cumulative, iontophoretic delivery across the skin, Mean ± SD (1.5 h): 74 ± 22 µg
cumulative, iontophoretic delivery across the skin, as tapentadol base, Mean ± SD (1.5 h): 63 ± 19 µg
drug flux across the skin, Mean ± SD (2 h, iontophoresis): 144 ± 38 µg/h
drug flux across the skin, as tapentadol base, Mean ± SD (2 h, iontophoresis): 124 ± 33 µg/h
cumulative, iontophoretic delivery across the skin, Mean ± SD (2 h): 146 ± 41 µg
cumulative, iontophoretic delivery across the skin, as tapentadol base, Mean ± SD (2 h): 125 ± 35 µg
drug flux across the skin, Mean ± SD (3 h, iontophoresis): 176 ± 32 µg/h
drug flux across the skin, as tapentadol base, Mean ± SD (3 h, iontophoresis): 151 ± 28 µg/h
drug flux across the skin (3 h, iontophoresis): 128 µg/h and 147 µg/h and 203 µg/h and 208 µg/h and 181 µg/h and 190 µg/h
cumulative, iontophoretic delivery across the skin, Mean ± SD (3 h): 322 ± 72 µg
cumulative, iontophoretic delivery across the skin, as tapentadol base, Mean ± SD (3 h): 276 ± 61 µg
cumulative, iontophoretic delivery across the skin (3 h): 224 µg and 259 µg and 364 µg and 419 µg and 315 µg and 348 µg
drug flux across the skin, Mean ± SD (4 h, iontophoresis): 232 ± 27 µg/h
drug flux across the skin, as tapentadol base, Mean ± SD (4 h, iontophoresis): 199 ± 23 µg/h
drug flux across the skin (4 h, iontophoresis): 184 µg/h and 217 µg/h and 238 µg/h and 257 µg/h and 248 µg/h
cumulative, iontophoretic delivery across the skin, Mean ± SD (4 h): 554 ± 96 µg
cumulative, iontophoretic delivery across the skin, as tapentadol base, Mean ± SD (4 h): 475 ± 83 µg
cumulative, iontophoretic delivery across the skin (4 h): 408 µg and 476 µg and 602 µg and 676 µg and 563 µg and 596 µg
drug flux across the skin, Mean ± SD (5 h, iontophoresis): 270 ± 22 µg/h
drug flux across the skin, as tapentadol base, Mean ± SD (5 h, iontophoresis): 232 ± 19 µg/h
drug flux across the skin (5 h, iontophoresis): 227 µg/h and 271 µg/h and 283 µg/h and 285 µg/h and 284 µg/h and 272 µg/h
cumulative, iontophoretic delivery across the skin, Mean ± SD (5 h): 824 ± 116 µg
cumulative, iontophoretic delivery across the skin, as tapentadol base, Mean ± SD (5 h): 707 ± 99 µg
cumulative, iontophoretic delivery across the skin (5 h): 635 µg and 747 µg and 885 µg and 962 µg and 847 µg and 867 µg
drug flux across the skin, Mean ± SD (6 h, iontophoresis): 277 ± 18 µg/h
drug flux across the skin, as tapentadol base, Mean ± SD (6 h, iontophoresis): 238 ± 16 µg/h
drug flux across the skin (6 h, iontophoresis): 243 µg/h and 282 µg/h and 298 µg/h and 277 µg/h and 286 µg/h and 274 µg/h
cumulative, iontophoretic delivery across the skin, Mean ± SD (6 h): 1101 ± 129 µg
cumulative, iontophoretic delivery across the skin, as tapentadol base, Mean ± SD (6 h): 945 ± 111 µg
cumulative, iontophoretic delivery across the skin (6 h): 878 µg and 1029 µg and 1183 µg and 1239 µg and 1133 µg and 1142 µg
drug flux across the skin, Mean ± SD (7 h, iontophoresis): 282 ± 18 µg/h
drug flux across the skin, as tapentadol base, Mean ± SD (7 h, iontophoresis): 242 ± 15 µg/h
drug flux across the skin (7 h, iontophoresis): 248 µg/h and 292 µg/h and 282 µg/h and 295 µg/h
cumulative, iontophoretic delivery across the skin, Mean ± SD (7 h): 1382 ± 144 µg
cumulative, iontophoretic delivery across the skin, as tapentadol base, Mean ± SD (7 h): 1187 ± 123 µg
cumulative, iontophoretic delivery across the skin (7 h): 1125 µg and 1322 µg and 1465 µg and 1534 µg and 1425 µg and 1424 µg
drug flux across the skin, Mean ± SD (8 h, iontophoresis): 288 ± 30 µg/h
drug flux across the skin, as tapentadol base, Mean ± SD (8 h, iontophoresis): 247 ± 26 µg/h
drug flux across the skin (8 h, iontophoresis): 254 µg/h and 331 µg/h and 256 µg/h and 302 µg/h and 282 µg/h
cumulative, iontophoretic delivery across the skin, Mean ± SD (8 h): 1671 ± 155 µg
cumulative, iontophoretic delivery across the skin, as tapentadol base, Mean ± SD (8 h): 1434 ± 133 µg
cumulative, iontophoretic delivery across the skin (8 h): 1380 µg and 1653 µg and 1721 µg and 1836 µg and 1727 µg and 1706 µg
drug flux across the skin, Mean ± SD (24 h, iontophoresis): 309 ± 26 µg/h
drug flux across the skin, as tapentadol base, Mean ± SD (24 h, iontophoresis): 265 ± 23 µg/h
drug flux across the skin (24 h, iontophoresis): 300 µg/h and 342 µg/h and 330 µg/h and 323 µg/h and 282 µg/h and 277 µg/h
cumulative, iontophoretic delivery across the skin, Mean ± SD (24 h): 6616 ± 468 µg
cumulative, iontophoretic delivery across the skin, as tapentadol base, Mean ± SD (24 h): 5680 ± 402 µg
cumulative, iontophoretic delivery across the skin (24 h): 6185 µg and 7120 µg and 7001 µg and 7000 µg and 6247 µg and 6145 µg
cumulative amount delivered across a 0.64 cm2 area of skin, as tapentadol base (24 hours iontophoresis): 5.7 mg
cumulative amount delivered per 1 cm2, as tapentadol base (24 hours iontophoresis): 8.9 mg
cumulative amount delivered across a 0.64 cm2 area of skin [1]: 6.6 mg
cumulative amount delivered per 1 cm2 [1]: 10.3 mg
time by which steady-state flux appears to have been reached (example 1b, iontophoresis): 5 to 6 h
difference between flux during iontophoresis and flux due to passive diffusion (iontophoresis vs comparative example 1b): 30 fold
